PubChem BioAssay (NCI)
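Briefly, cells in 96-well plates were exposed to five compound concentrations for 48 h, and endpoints were estimated by linear interpolation. At the TGI there is no net growth.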

Legend:
Assay in all cases: inhibition of tumour cell growth, NCI panel, 48 h
SF-295 CNS = system: SF-295 CNS
DU-145 prostate = system: DU-145 prostate
MALME-3M melanoma = system: MALME-3M melanoma
NCI-H522 lung = system: NCI-H522 lung
UACC-257 melanoma = system: UACC-257 melanoma
CAKI-1 renal = system: CAKI-1 renal
BT-549 breast = system: BT-549 breast
RXF 393 renal = system: RXF 393 renal
HCT-116 colon = system: HCT-116 colon
LOX IMVI melanoma = system: LOX IMVI melanoma
T-47D breast = system: T-47D breast
NCI-H460 lung = system: NCI-H460 lung
786-0 renal = system: 786-0 renal
EKVX NSCLC = system: EKVX NSCLC
SK-MEL-5 melanoma = system: SK-MEL-5 melanoma
HOP-92 NSCLC = system: HOP-92 NSCLC
SNB-75 CNS = system: SNB-75 CNS
HCT-15 colon = system: HCT-15 colon
SW-620 colon = system: SW-620 colon
U251 CNS = system: U251 CNS
HOP-62 NSCLC = system: HOP-62 NSCLC
OVCAR-4 ovarian = system: OVCAR-4 ovarian
A549 NSCLC = system: A549 NSCLC
SNB-19 CNS = system: SNB-19 CNS
NCI-H226 lung = system: NCI-H226 lung
HT29 colon = system: HT29 colon
IGROV1 ovarian = system: IGROV1 ovarian
NCI-H23 lung = system: NCI-H23 lung
OVCAR-5 ovarian = system: OVCAR-5 ovarian
MOLT-4 leukemia = system: MOLT-4 leukemia
SF-268 CNS = system: SF-268 CNS
COLO 205 colon = system: COLO 205 colon
M14 melanoma = system: M14 melanoma
MDA-MB-231 breast = system: MDA-MB-231 breast
TK-10 renal = system: TK-10 renal
KM12 colon = system: KM12 colon
OVCAR-3 ovarian = system: OVCAR-3 ovarian
SF-539 CNS = system: SF-539 CNS
UO-31 renal = system: UO-31 renal
SK-OV-3 ovarian = system: SK-OV-3 ovarian
A498 renal = system: A498 renal
ACHN renal = system: ACHN renal
SK-MEL-28 melanoma = system: SK-MEL-28 melanoma
MDA-N = system: MDA-N
K-562 leukemia = system: K-562 leukemia
RPMI-8226 leukemia = system: RPMI-8226 leukemia
SN12C renal = system: SN12C renal
OVCAR-8 ovarian = system: OVCAR-8 ovarian
MDA-MB-435 = system: MDA-MB-435
NCI/ADR-RES ovarian = system: NCI/ADR-RES ovarian
CCRF-CEM leukemia = system: CCRF-CEM leukemia
SR leukemia = system: SR leukemia
PC-3 prostate = system: PC-3 prostate
SK-MEL-2 melanoma = system: SK-MEL-2 melanoma
UACC-62 melanoma = system: UACC-62 melanoma
HCC-2998 colon = system: HCC-2998 colon
MCF7 breast = system: MCF7 breast

Measured: TGI

CC(=O)[C@@]1(C)CC2(CCN(C)CC2)OC1C (some centres undefined)
not listed: CCRF-CEM leukemia | SR leukemia | PC-3 prostate | SK-MEL-2 melanoma | UACC-62 melanoma | HCC-2998 colon | MCF7 breast
> 100 µM: all other assays above

CCOP(=O)(OCC)/C(C#N)=C/c1cn(C)cn1
not listed: DU-145 prostate | HCT-116 colon | LOX IMVI melanoma | T-47D breast | 786-0 renal | SK-MEL-5 melanoma | MOLT-4 leukemia | RPMI-8226 leukemia
> 100 µM: all other assays above
